Source: US12139505B2, “Compositions useful in therapy of autophagy-related pathologies, and methods of making and using the same” (The University of Toledo, priority 2017, dated 2024)
Entries after “also recorded” stand apart in the source; their conditions may differ.

Experiments:
SH-SY5Y cells = assay: Western blot for LC3-II (autophagy induction with bafilomycin-A1); format: cell-based, human
Method: (FIG. 35B). […] In a dose dependent manner with a maximum of 6 μM.
2-n-hexyl-LKE-P drug solutions in CCM from 0.1 to 100 μM were prepared as above for the viability assay except that the drug solutions contained 10 nM bafilomycin A1. For positive control: 50 nM rapamycin in CCM containing 10 nM bafilomycin A1 was used. For negative control: 1 μL of DMSO is dissolved in every 100 μL of CCM containing 10 nM bafilomycin A1. When SH-SY5Y cells were 85-90% confluent, 300,000 cells per well were seeded into 12-well plates. Cells were exposed to four concentrations of 2-n-hexyl-LKE-P, positive control and negative control for 4 hours at 37° C. in 5% CO2 in air atmosphere. Subsequently, the cells were washed with PBS, next, 0.25% Trypsin/EDTA was used to aid in detaching the cells and CCM was then added to neutralize the Trypsin/EDTA and wash the cells from the dish. Washed cells were collected in a centrifuge tube for concentration. After centrifugation at 2000 RPM for 5 minutes, the cells were re-suspended in PBS and re-centrifuged to pellets. The supernatant was then discarded and the cell pellets were frozen in −20° C. freezer. 50 μL lysis buffer (RIPA buffer plus, 1 mM sodiumorthovanadate, 5 mM β-glycerophosphate and 1:200 mammalian protease inhibitor cocktail) was added to the cells and the cells were re-suspended in the lysis buffer. […] The membranes were then ready for imaging.

PINK1^B9 flies = assay: Fly longevity (survival) assay; format: in vivo, Drosophila melanogaster
Method: 2-n-hexyl-LKE-P was dissolved in DMSO and supplemented into a warm solution of minimal media (5% sucrose, 2% agarose and water, 60° C.) to a final concentration of 10, 100 and 1000 μM. Freshly eclosed adult flies were transferred to minimal media containing the drug for one day followed by the experiments. 15 flies from each group were placed in a vial containing food, kept on its side to prevent the flies from sticking to the media, at 23° C., 60% humidity, under a 12-h light-dark cycle. Food vials were changed every 2-3 days and the dead flies were counted daily. Over 100 flies were prepared for each genotype and the experiments were carried out three times. The number of surviving flies on each day was converted to surviving days for each fly and imported to GraphPad Prism. Kaplan-Meier surviving curves were graphed and statistics was performed by log-rank test on the surviving data to compare the longevity with different treatment.

[1] = tested on: d42-Gal4;UAS-nSyb-GFPxUAS-C9orf72polyGR36 flies; assay: Fly sleep behavior, C9orf72 ALS model; format: in vivo, Drosophila melanogaster
Method: The base for the food was a cornmeal agar product, Nutri-fly BF (Genesee Scientific, Box of 10, 1-liter bags, Cat #66-112). In a 2 L beaker, 1 L of ultrapure water was heated to […], with the stir bar speed set to 600. To the beaker, one bag of Nutri-fly BF was added in small portions. The beaker was covered to maintain temperature (monitored with an inserted thermometer) while stirring as rapidly as possible until the temperature reached 97° C. The food was stirred at this temperature for 10 minutes using a wooden spoon/spatula, then allowed to cool to approximately 65° C. with continuous stirring (magnetic bar). At 65° C., while maintaining constant stirring, 12 mL of Tegosept was added followed by 7 mL of propionic acid solution. To be used as fly maintenance food, the food was allowed to cool to 55° C. and 4 mL of the food was aliquoted (to a depth of approximately 1 inch) into individual vials with mity drosophila plugs (VWR #75813-162 and #10054-506). For use as a drug delivery vehicle, the food was allowed to cool to room temperature while covered with aluminum foil, then sealed with parafilm stored at 4° C. To prepare the food for drug delivery, the food was homogenized at room temperature with an immersion blender. To prepare the drug-infused-food, about half of the calculated food, accurately measured, was added to a 250 mL beaker, followed by the drug (no carrier solvent is used). The drug was then covered with the rest of the food and the contents of the beaker were thoroughly mixed with an overhead mixer (with shroud removed) until the drug was distributed homogeneously within the food. The food was then distributed in 4.00 g aliquots to the vials with plugs (described above). The food-containing vials were centrifuged in 50 mL tubes at an appropriate speed (approximately 1000 to 1400 g) to just force the “drug food” to the bottom of the feeding vial. The vials were closed with the cotton mity plug until use.
Test flies were transferred individually, under CO2 anesthesia, into 5 mm×65 mm (outside diameter×length) polycarbonate recording tubes with either minimal media or normal fly food on one end and yarn plugs on the other. Sleep parameters were continuously evaluated using the TriKinetics Drosophila activity monitoring system. Sleep is defined as 5 min or more of continuous inactivity, the minimum amount of time to qualify as a single sleep bout. Zeitgeber time (ZT) 0 is defined as the time of lights on and ZT12 is defined as the time of lights off. Mobility (activity) was also monitored and data tabulated based on the number of beam counts and diurnal variations were calculated. The sleep and mobility data were collected and analyzed.

CCCCCCC1=C(P(=O)(O)O)N[C@H](C(=O)OCC)CS1 [2-n-hexyl-LKE-P]
autophagy stimulation (LC3-I, LC3-II) (SH-SY5Y cells; in the presence of bafilomycin-A1): stimulates autophagy in a dose dependent manner; also recorded: able to stimulate autophagy | concentration of maximum autophagy stimulation (SH-SY5Y cells; in the presence of bafilomycin-A1, 0.1 to 10 μM tested): 6 µM | survival of PINK1^B9 flies (PINK1^B9 flies; 10 μM in media): did not significantly affect the survival | survival of PINK1^B9 flies (PINK1^B9 flies; 100 μM in media): did not significantly affect the survival | lifespan of PINK1^B9 flies (PINK1^B9 flies; 1000 μM in media): extended the lifespan; also recorded: significantly increased the PINK1^B9 lifespan | lifespan of PINK1^B9 flies (PINK1^B9 flies; dose not stated (summary)): more than double the lifespan | daytime sleeping time of control flies ([1]; d42-Gal4: UAS-nSyb-GFPxUAS-W1118 control flies): did not change the daytime sleeping time of control flies | number of sleep bouts during the day ([1]; polyGR36 in motor neurons): decreased the number of sleep bouts during the day | total sleep time ([1]; polyGR36 in motor neurons): increased total sleep time | daytime sleepiness / daytime sleeping time of mutant flies ([1]; polyGR36 in motor neurons, drug in food throughout development): decreased the daytime sleeping time of mutant flies; also recorded: rescued the daytime sleepiness
